Results reported in ChEMBL document CHEMBL5346922, “Discovery of phenylcarbamoyl xanthone derivatives as potent neuroprotective agents for treating ischemic stroke” (Eur J Med Chem, 2023).
pEC50, pIC50: −log10 of the molar value. Calls of active or inactive are those of the source. The calls are words filed in the database; no cut-off is given here.

Tests used:
PC-12 [1] = assay: Cytotoxicity against rat PC12 cells assessed as reduction in cell viability incubated for 24 hrs by MTT assay; format: functional, cell-based; conditions: PC-12, 24 h
PC-12 [2] = assay: Neuroprotective activity against glutamate induced excitotoxicity in rat PC12 cells assessed as cell survival at 20 uM pretreated with glutamate for 24 hrs followed by compound addition and measured after 24 hrs; format: functional; conditions: read-out: Survival
PC-12 [3] = assay: Neuroprotective activity in rat PC12 cells assessed as protection against glutamate induced excitotoxicity at 20 uM pretreated with glutamate for 24 hrs followed by compound addition and measured after 24 hrs; format: functional
PC-12 [4] = assay: Neuroprotective activity against H2O2-induced oxidative damage in rat PC12 cells assessed as increase in cell survival at 20 uM pretreated with H2O2 for 24 hrs followed by compound addition and measured after 24 hrs; format: functional; conditions: read-out: Survival
PC-12 [5] = assay: Neuroprotective activity against H2O2-induced oxidative damage in rat PC12 cells at 20 uM pretreated with H2O2 for 24 hrs followed by compound addition and measured after 24 hrs; format: functional
PC-12 [6] = assay: Neuroprotective activity against glutamate induced excitotoxicity in rat PC12 cells pretreated with glutamate for 24 hrs followed by compound addition and measured after 24 hrs; format: functional, cell-based
PC-12 [7] = assay: Neuroprotective activity against H2O2-induced oxidative damage in rat PC12 cells pretreated with H2O2 for 24 hrs followed by compound addition and measured after 24 hrs; format: functional, cell-based
PC-12 [8] = assay: Cytotoxicity against rat PC12 cells assessed as reduction in cell viability at 80 uM incubated for 24 hrs by MTT assay; format: functional
[9] = Acute toxicity in Sprague-Dawley rat assessed as animal death at 4000 mg/kg, po measured for 24 hrs; format: organism-based; conditions: in vivo
Rattus norvegicus [10] = assay: Neuroprotective activity against middle cerebral artery occlusion induced ischemia stroke Sprague-Dawley rat model assessed as Zea-longa score at 60 mg/kg, po measured after 24 hrs (reference value: 2.33 +/- 0.47); format: functional
Rattus norvegicus [11] = assay: Neuroprotective activity against middle cerebral artery occlusion induced ischemia stroke Sprague-Dawley rat model assessed as decrease in cerebral infarction area at 60 mg/kg, ip measured after 24 hrs by TTC staining based microscopic assay (reference value: 15.91 +/- 9.06 %); format: functional; set-up: scale not given: the % may be the effect or the level left
Rattus norvegicus [12] = assay: Neuroprotective activity against middle cerebral artery occlusion induced ischemia stroke Sprague-Dawley rat model assessed as decrease in brain water content at 60 mg/kg, ip measured after 24 hrs (reference value: 83.17 +/- 2.40%); format: functional; set-up: scale not given: the % may be the effect or the level left
Rattus norvegicus [13] = assay: Neuroprotective activity against middle cerebral artery occlusion induced ischemia stroke Sprague-Dawley rat model assessed as reduction in TNF-alpha level in serum at 20 to 60 mg/kg, ip measured after 24 hrs by ELISA analysis; format: functional, organism-based; conditions: dose 20-60 mg/kg
Rattus norvegicus [14] = assay: Neuroprotective activity against middle cerebral artery occlusion induced ischemia stroke Sprague-Dawley rat model assessed as reduction in IL-1beta level in serum at 20 to 60 mg/kg, ip measured after 24 hrs by ELISA analysis; format: functional, organism-based; conditions: dose 20-60 mg/kg
Rattus norvegicus [15] = assay: Neuroprotective activity against middle cerebral artery occlusion induced ischemia stroke Sprague-Dawley rat model assessed as increase in serum SOD level at 20 to 60 mg/kg, ip measured after 24 hrs; format: functional, organism-based; conditions: dose 20-60 mg/kg
Rattus norvegicus [16] = assay: Neuroprotective activity against middle cerebral artery occlusion induced ischemia stroke Sprague-Dawley rat model assessed as […] in serum MDA level at 20 to 60 mg/kg, ip measured after 24 hrs; format: functional, organism-based; conditions: dose 20-60 mg/kg

COc1c(OC(=O)N(C)c2ccccc2)cc2oc3cc4c(c(O)c3c(=O)c2c1CC=C(C)C)C=CC(C)(C)O4 gave a pIC50 (PC-12 [1]) of 5.48, a viability at 20 µM (PC-12 [2]) of 68.6% and an Activity (PC-12 [3]) of 54.79%. The viability at 20 µM (PC-12 [4]) was 78.9%, the Activity (PC-12 [5]) was 52.62% and the pEC50 (PC-12 [6]) was 4.79. The pEC50 (PC-12 [7]) was 4.71, the Activity (PC-12 [8]) was “inactive” and the Activity [9] was “Non-Toxic”. The Activity (Rattus norvegicus [10]) was 1.67, the Activity (Rattus norvegicus [11]) was 1.78% and the Activity (Rattus norvegicus [12]) was 77.41%. The Activity (Rattus norvegicus [13]) was “Active”, the Activity (Rattus norvegicus [14]) was “Active” and the Activity (Rattus norvegicus [15]) was “Active”. For the same compound, the Activity (Rattus norvegicus [16]) was “Active”.
